Experimental data reported in patent US20170368052A1, “CRYSTAL FORMS OF APOMORPHINE AND USES THEREOF” (NeuroDerm, Ltd., priority 2014, published 2017).
“Also recorded” adds a separate entry of the source. Structures can show the parent of a compound that is named as a salt.

Key:
[1] = Stability of the reaction mixture at reflux in IPA with/without ascorbic acid-6-palmitate (HPLC); type: physicochemical
Experimental: In this case, the base was added under reflux and the procedure compared with and without ascorbic acid-6-palmitate as an antioxidant (Table 7).

[2] = Stability to air (color visually monitored); type: physicochemical; settings: visual
From the text: Samples of free base isolated from water, IPA, and MeOAc were retained open to air and the color visually monitored (FIG. 2). Over the course of 2 days, the products isolated from organic solvents discolored to green solids. […]

[3] = Solubility of apomorphine free base and HCl salt in solvents; type: physicochemical
Experimental: This material was used in 50 mg portions (A0513-06).
The free base is fully soluble in 5 vol of either MeOH, EtOH, or n-BuOH. […] The free base precipitated as an oil from most solvents, particularly after heating. An apparently crystalline solid formed following dissolution of the free base and cooling in 1,4-dioxane.

[4] = cited from earlier work; for pKa: amine bases used for salt release in IPA; for Literature pKa: bases of the base screen in n-BuOH
[5] = Stability of the reaction mixture at 40-45° C. (HPLC profile); type: physicochemical; settings: 40° C.
Experimental: The effect of adding ascorbic acid-6-palmitate on stability of the reaction mixture and the isolated solid was determined in a larger scale reaction (A0513-68). On a 10 g scale, ascorbic acid-6-palmitate (0.01 wt) was added to a flask with the apomorphine hydrochloride salt and IPA (10 vol). 3-amino-1-propanol (2.5 ml, 1.1 eq, 0.25 vol) was added at 40-45° C., and a slurry was present throughout. The slurry was stirred at 40-45° C. for 2 h; at this point 10% of the reaction mixture was removed for an extended stability study at 40-45° C. The remainder of the reaction was cooled and aged over 16 h to 18-23° C. The solid was filtered and washed with IPA (2×3 vol) and resulted a white solid (liquor was pale yellow). The solid was dried under a flow of nitrogen for 30 min. The yield was 7.03 g (79.8%, corrected for 18.3% w/w IPA, approximately 1 eq), 100% area by HPLC (Note: 10% of the reaction mixture was removed for the stability study, therefore this yield is at the expected approximately 90% level, and the combined mother liquor and washes contained 7.6% of theoretical yield by assay). In this material the ascorbic acid-6-palmitate and 3-amino-1-propanol in the product were below detectable levels by ^1H NMR analysis.
Stability of the reaction mixture was compared with and without ascorbic acid-6-palmitate. Each reaction was held at 40-45° C. and both the color and the HPLC profile monitored. HPLC purity profiles are shown on Table 6.

[6] = Vacuum oven drying, retained solvent content; type: physicochemical; settings: for Solvent content post-drying: vacuum oven, 45° C. for 24 h
Experimental: Four samples (B, G, H and O) were transferred to a vacuum oven and dried at 45° C. for 24 h.

[7] = Stability study of the isolated solid to air and light (HPLC profile); type: physicochemical
Experimental: The 3-amino-1-propanol mediated salt release of apomorphine was scaled to 10 g in IPA (10 vol), and in order to aid the mobility of the reaction, the addition of the 3-amino-1-propanol was performed at 40-45° C. […] The slurry was cooled and aged over 16 h at 18 to 23° C.
Samples of solids isolated from an IPA recrystallization of the free base, salt released via the 3-amino-1-propanol route were monitored by their color change and their HPLC profile. The HPLC profiles are described in Table 8.

[8] = Antioxidant additives: stability of apomorphine free base in MeOH solution (HPLC); type: physicochemical; settings: MeOH (10 vol)
Experimental: However, the free base in solution is susceptible to aerial oxidation.
The vial was flushed with air, sealed, and stirred. The reactions were compared with a control reaction having no antioxidant. • A—in MeOH (10 vol) (control reaction) • B—ascorbic acid-6-palmitate (10 wt %) in MeOH (10 vol) • C—BHT (10 wt %) in MeOH (10 vol)
Samples were analyzed by HPLC. […] The HPLC profile just after addition of the antioxidant was of similar purity for each sample. After 24 h, sample B had precipitated a small amount of solid in a pale green solution. […] Key impurities elute early in the HPLC profile at RRT 0.15 and 0.18. In the samples without ascorbic acid-6-palmitate these impurities were >1.5% area.

[9] = no ascorbic acid-6-palmitate, solution at reflux
[10] = with ascorbic acid-6-palmitate, isolated solid
[11] = no ascorbic acid-6-palmitate, isolated solid
[12] = ascorbic acid-6-palmitate, 24 h
[13] = ascorbic acid-6-palmitate, 48 h
[14] = ascorbic acid-6-palmitate, 120 h
[15] = isolated stability to air and light (2 days)
[16] = isolated stability to air and light (5 days)
[17] = isolated stability to air and light (17 days)
[18] = from reaction containing asc, stability of solid in air and light (5 days)
[19] = from reaction containing asc, stability of solid in air and light (14 days)
[20] = isolated from reaction containing asc (1 day)
[21] = no ascorbic acid-6-palmitate, liquors
[22] = with ascorbic acid-6-palmitate, liquors

CN1CCc2cccc3c2C1Cc1ccc(O)c(O)c1-3 (stereo not drawn) [A0513-94-01]
% area: RRT 1.00 [1, 9]: 99.56 % area | % area: RRT 1.09 [1, 9]: 0.05 % area | % area: RRT 1.25 [1, 9]: 0.06 % area | % area: RRT 1.71 [1, 9]: 0.06 % area | % area: RRT 1.76 [1, 9]: 0.04 % area

CN1CCc2cccc3c2[C@H]1Cc1ccc(O)c(O)c1-3 [apomorphine]
Color of solid retained open to air ([2]; over 2 days): did not appear to change | Time over which the solid gradually discolored open to air [2]: about 4 weeks | Solubility in EtOH ([3]; 5 vol, 50 mg portions): fully soluble | Solubility in MeOH ([3]; 5 vol, 50 mg portions): fully soluble | Solubility in n-BuOH ([3]; 5 vol, 50 mg portions): fully soluble

CC1(C)CCCC(C)(C)N1 [TMP, 2,2,6,6-tetramethylpiperidine]
pKa [4]: 11.07 | Literature pKa [4]: 11.07

CN1CCc2cccc3c2C1Cc1ccc(O)c(O)c1-3 (stereo not drawn) [A0513-76-01]
% area: RRT 1.00 ([5]; effective purging, 24 h): 99.90 % area | % area: RRT 1.71 ([5]; effective purging, 24 h): 0.06 % area | % area: RRT 1.76 ([5]; effective purging, 24 h): 0.04 % area | % area: RRT 1.00 ([5]; effective purging, 96 h): 99.90 % area | % area: RRT 1.71 ([5]; effective purging, 96 h): 0.06 % area | % area: RRT 1.76 ([5]; effective purging, 96 h): 0.04 % area

CC(C)O.CN1CCc2cccc3c2C1Cc1ccc(O)c(O)c1-3 (stereo not drawn) [A0513-98-03]
% area: RRT 1.00 [1, 10]: 99.93 % area | % area: RRT 1.25 [1, 10]: 0.07 % area

CN1CCc2cccc3c2[C@H]1Cc1ccc(O)c(O)c1-3 [O]
Solvent content post-drying [6]: 7.8 % w/w

CN1CCc2cccc3c2[C@H]1Cc1ccc(O)c(O)c1-3 [H]
Solvent content post-drying [6]: 20.0 % w/w

CC(C)O.CN1CCc2cccc3c2C1Cc1ccc(O)c(O)c1-3 (stereo not drawn) [A0513-94-03]
% area: RRT 1.00 [1, 11]: 99.81 % area | % area: RRT 1.25 [1, 11]: 0.13 % area | % area: RRT 1.71 [1, 11]: 0.02 % area

CN1CCc2cccc3c2C1Cc1ccc(O)c(O)c1-3 (stereo not drawn) [A0513-68A-03]
% area: RRT 1.00 [5, 12]: 99.93 % area | % area: RRT 1.71 [5, 12]: 0.05 % area | % area: RRT 1.76 [5, 12]: 0.03 % area | % area: RRT 1.00 [5, 13]: 99.96 % area | % area: RRT 1.71 [5, 13]: 0.04 % area | % area: RRT 1.00 [5, 14]: 99.86 % area | % area: RRT 1.25 [5, 14]: 0.04 % area | % area: RRT 1.71 [5, 14]: 0.06 % area | % area: RRT 1.76 [5, 14]: 0.04 % area

CC(C)O.CN1CCc2cccc3c2[C@H]1Cc1ccc(O)c(O)c1-3 [A0513-64-05, apomorphine free base mono-IPA solvate]
% area: RRT 1.00 ([7]; isolated solid, no ascorbic acid-6-palmitate, output): 100.00 % area | % area: RRT 1.00 [7, 15]: 99.98 % area | % area: RRT 1.71 [7, 15]: 0.02 % area | % area: RRT 1.00 [7, 16]: 99.95 % area | % area: RRT 1.71 [7, 16]: 0.03 % area | % area: RRT 1.76 [7, 16]: 0.02 % area | % area: RRT 0.41 [7, 17]: 0.03 % area | % area: RRT 1.00 [7, 17]: 99.92 % area | % area: RRT 1.71 [7, 17]: 0.02 % area | % area: RRT 1.76 [7, 17]: 0.03 % area

CN1CCc2cccc3c2[C@H]1Cc1ccc(O)c(O)c1-3 [Sample G]
IPA content remaining ([6]; 75° C. for 17 h under vacuum): 17.4 % w/w

C[N+](C)(C)CC(=O)O [Betaine]
Literature pKa [4]: 12.16

CC(C)O.CN1CCc2cccc3c2[C@H]1Cc1ccc(O)c(O)c1-3 [A0513-68-01, apomorphine free base mono-IPA solvate]
% area: RRT 1.00 [7, 18]: 99.97 % area | % area: RRT 1.71 [7, 18]: 0.03 % area | % area: RRT 0.41 [7, 19]: 0.01 % area | % area: RRT 1.00 [7, 19]: 99.92 % area | % area: RRT 1.71 [7, 19]: 0.03 % area | % area: RRT 1.76 [7, 19]: 0.02 % area | % area: RRT 2.02 [7, 19]: 0.02 % area | % area: RRT 1.00 [7, 20]: 99.98 % area | % area: RRT 1.71 [7, 20]: 0.02 % area

CN1CCc2cccc3c2C1Cc1ccc(O)c(O)c1-3 (stereo not drawn) [A0513-94-02]
% area: RRT 1.00 [1, 21]: 92.99 % area | % area: RRT 1.09 [1, 21]: 1.79 % area | % area: RRT 1.25 [1, 21]: 0.57 % area | % area: RRT 1.29 [1, 21]: 1.20 % area | % area: RRT 1.50 [1, 21]: 0.22 % area | % area: RRT 1.71 [1, 21]: 0.34 % area | % area: RRT 1.76 [1, 21]: 0.43 % area

CN1CCc2cccc3c2[C@H]1Cc1ccc(O)c(O)c1-3 [Sample B]
Solvent content post-drying [6]: 23.4 % w/w | HPLC purity compared between samples ([8]; after 24 h): higher than for either A or C | HPLC purity compared between samples ([8]; after 72 h): highest purity

CN1CCc2cccc3c2C1Cc1ccc(O)c(O)c1-3 (stereo not drawn) [A0513-72-01]
% area: RRT 0.74 ([5]; poor purging, 24 h): 0.22 % area | % area: RRT 1.00 ([5]; poor purging, 24 h): 98.18 % area | % area: RRT 1.09 ([5]; poor purging, 24 h): 0.13 % area | % area: RRT 1.22 ([5]; poor purging, 24 h): 0.44 % area | % area: RRT 1.25 ([5]; poor purging, 24 h): 0.10 % area | % area: RRT 1.37 ([5]; poor purging, 24 h): 0.15 % area | % area: RRT 1.50 ([5]; poor purging, 24 h): 0.07 % area | % area: RRT 0.74 ([5]; poor purging, 48 h): 0.10 % area | % area: RRT 1.00 ([5]; poor purging, 48 h): 94.66 % area | % area: RRT 1.09 ([5]; poor purging, 48 h): 2.32 % area | % area: RRT 1.22 ([5]; poor purging, 48 h): 0.42 % area | % area: RRT 1.25 ([5]; poor purging, 48 h): 1.46 % area | % area: RRT 1.37 ([5]; poor purging, 48 h): 0.16 % area | % area: RRT 1.50 ([5]; poor purging, 48 h): 0.10 % area

NCCCO [3-amino-1-propanol]
pKa [4]: 10.23

CN1CCc2cccc3c2[C@H]1Cc1ccc(O)c(O)c1-3 [apomorphine hydrochloride]
Solubility in methanol ([3]; listed as HCl salt, hydrochloride): the only solvent that dissolved any significant amount; also recorded: moderate solubility | Solubility in n-BuOH ([3]; up to 20 vol at reflux): did not dissolve

CN(C1CCCCC1)C1CCCCC1 [N-methyl-dicyclohexyl amine]
pKa [4]: 9.25

CN1CCc2cccc3c2C1Cc1ccc(O)c(O)c1-3 (stereo not drawn) [A0513-98-02]
% area: RRT 1.00 [1, 22]: 95.62 % area | % area: RRT 1.09 [1, 22]: 1.25 % area | % area: RRT 1.25 [1, 22]: 0.19 % area | % area: RRT 1.29 [1, 22]: 0.61 % area | % area: RRT 1.50 [1, 22]: 0.12 % area | % area: RRT 1.71 [1, 22]: 0.45 % area | % area: RRT 1.76 [1, 22]: 0.34 % area
